Where “and” joins values, the source holds several entries; their conditions need not be identical. Equal values may be shown once.
What was measured:
AaegOR15 = target: T1, AaegOR15 (Aedes aegypti, UniProt A0A6B9QIR2); assay: Two-electrode voltage clamp of Xenopus laevis oocytes expressing AaegOR15/Orco (blends, unitary compounds, concentration-response); type: cell-based; conditions: for Raw data (Responses in nA), compounds of blend Alcohols 2: individual oocytes 1-10 (replicates); for Raw Data, concentration-response: no unit printed in this section (nA in the sections above); for Raw data (Responses in nA), phenethyl propionate versus 1-hexanol: separate set of 7 oocytes (replicates); for response of OR15 to unitary compounds: individual compounds
T1 sequence (A0A6B9QIR2 1-390): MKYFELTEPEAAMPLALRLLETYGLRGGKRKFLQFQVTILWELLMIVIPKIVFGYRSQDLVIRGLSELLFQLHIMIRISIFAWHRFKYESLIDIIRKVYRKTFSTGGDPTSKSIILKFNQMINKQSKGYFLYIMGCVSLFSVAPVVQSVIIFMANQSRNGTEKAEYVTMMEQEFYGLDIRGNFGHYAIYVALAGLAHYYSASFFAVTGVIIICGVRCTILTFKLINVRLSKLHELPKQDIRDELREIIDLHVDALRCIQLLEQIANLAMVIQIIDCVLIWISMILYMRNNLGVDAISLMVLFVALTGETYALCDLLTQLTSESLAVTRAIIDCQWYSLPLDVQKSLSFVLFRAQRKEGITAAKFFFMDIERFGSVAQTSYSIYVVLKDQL
T1 sequence (Q178U6 1-478 partner): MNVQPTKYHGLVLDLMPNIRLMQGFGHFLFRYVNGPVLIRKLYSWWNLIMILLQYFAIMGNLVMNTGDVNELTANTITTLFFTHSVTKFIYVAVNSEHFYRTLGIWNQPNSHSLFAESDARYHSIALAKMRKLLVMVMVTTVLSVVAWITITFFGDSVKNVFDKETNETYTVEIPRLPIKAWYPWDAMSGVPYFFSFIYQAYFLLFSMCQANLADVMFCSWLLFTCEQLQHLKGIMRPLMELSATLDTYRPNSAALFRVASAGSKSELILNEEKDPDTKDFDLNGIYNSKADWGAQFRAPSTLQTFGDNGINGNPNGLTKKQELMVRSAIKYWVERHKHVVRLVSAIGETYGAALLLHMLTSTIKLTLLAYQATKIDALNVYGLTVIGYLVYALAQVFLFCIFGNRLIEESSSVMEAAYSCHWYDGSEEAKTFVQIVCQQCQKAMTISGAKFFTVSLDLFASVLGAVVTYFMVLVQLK
Excerpt: (§1) The coding regions of ten AaegOR genes of interest (S3 File) and AaegOrco were synthesized by Twist Bioscience (San Francisco, CA, USA) and cloned into the pENTR plasmid. The Gateway LR directional cloning system (Invitrogen Corp., Carlsbad, CA, USA) was utilized to subclone AaegOR coding regions into the pSP64t-RFA oocyte expression plasmid. Plasmids were purified using the GeneJet Plasmid Miniprep Kit (ThermoFisher Scientific, Waltham, MA, USA). Purified plasmids were sequenced in both directions to confirm coding regions.
(§2) Chemical compounds (S6 File) used in the deorphanization of AaegORs were purchased from Acros Organics (Morris, NJ, USA), Alfa Aesar (Ward Hill, MA, USA), and ThermoFisher Scientific (Waltham, MA, USA) at the highest purity available. Compounds were stored as 1M stocks in 100% DMSO. Serial dilutions of each compound were prepared in 10% DMSO and blended by chemical class.
(§3) pSP64t-RFA: AaegOR clones were linearized using Xbal, and cRNAs were synthesized using the mMESSAGE mMACHINE ® SP6 kit (Life Technologies, Carlsbad, CA, USA). Xenopus laevis stage V-VII oocytes purchased from Xenopus1 (Dexter, MI, USA) were stored at 18°C in Incubation medium (ND96 96 with 5% dialyzed horse serum, 50μg/mL gentamycin, 100μg/mL streptomycin, 100μg/mL penicillin, and 550μg/mL sodium pyruvate). 30nL of cRNA was injected into multiple oocytes using a microinjection syringe pump (World Precision Instruments, Sarasota, FL, USA) maintained at 18°C for 48–72 hrs. Odorant blends were perfused across individual oocytes for 10–15 seconds, held at a resting membrane potential of -80 mV using an OC-725C oocyte clamp (Warner Instruments, LLC, Hamden, CT, USA). Induced currents were measured indirectly using the two-electrode voltage clamp technique (TEVC). Following each stimulus, currents were allowed to return to baseline before further stimulation. Data was captured using the Digidata 1550 B digitizer and PClamp10 software (Molecular Devices, San Jose, CA, USA). Concentration-response curves were generated by perfusing unitary odorants over oocytes at increasing concentrations from [10^-3M] to [10^-9M]. Data were analyzed using GraphPad Prism 8 (GraphPad Software Inc., La Jolla, CA, USA). At least two biological replicates were conducted at each concentration and for each compound. Data for at least seven oocytes responding to each compound was analyzed (S7 File).

AaegOR8 = target: T2, AaegOR8 (Aedes aegypti, UniProt Q16MN0); assay: Two-electrode voltage clamp of Xenopus laevis oocytes expressing AaegOR8/Orco (blends, unitary compounds, concentration-response); type: cell-based; conditions: for Raw data (Responses in nA) Oocyte 1 / Raw data (Responses in nA) Oocyte 2 / Raw data (Responses in nA) Oocyte 3 / Raw data (Responses in nA) Oocyte 4 / Raw data (Responses in nA) Oocyte 5 / Raw data (Responses in nA) Oocyte 6 / Raw data (Responses in nA) Oocyte 7 / Raw data (Responses in nA) Oocyte 8: Alcohols 2 unitary compounds
T2 sequence (Q16MN0 32-422): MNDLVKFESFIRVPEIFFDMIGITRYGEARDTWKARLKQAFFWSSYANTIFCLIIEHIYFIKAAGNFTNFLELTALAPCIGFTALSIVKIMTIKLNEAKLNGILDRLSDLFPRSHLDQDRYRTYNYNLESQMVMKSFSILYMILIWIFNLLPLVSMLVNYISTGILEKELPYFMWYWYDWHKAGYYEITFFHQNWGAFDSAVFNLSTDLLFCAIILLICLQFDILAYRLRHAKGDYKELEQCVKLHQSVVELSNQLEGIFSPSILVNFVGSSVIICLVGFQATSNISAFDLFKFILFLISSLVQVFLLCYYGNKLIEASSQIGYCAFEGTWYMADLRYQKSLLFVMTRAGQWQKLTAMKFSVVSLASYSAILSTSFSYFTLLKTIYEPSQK
T2 sequence (Q178U6 1-478 partner): T1 sequence (Q178U6 1-478 partner)
Excerpt: as §1, §2, §3

[1] = unitary compounds of Alcohols 2
[2] = AaegOR15/Orco expressing oocytes, TEVC

| Compound | Raw data (Responses in nA), compounds of blend Alcohols 2 (AaegOR15; [1]) | Raw data (Responses in nA) Oocyte 1 (AaegOR8) [nA] | Raw data (Responses in nA) Oocyte 2 (AaegOR8) [nA] | Raw data (Responses in nA) Oocyte 3 (AaegOR8) [nA] | Raw data (Responses in nA) Oocyte 4 (AaegOR8) [nA] | Raw data (Responses in nA) Oocyte 5 (AaegOR8) [nA] | Raw data (Responses in nA) Oocyte 6 (AaegOR8) [nA] | Raw data (Responses in nA) Oocyte 7 (AaegOR8) [nA] | Raw data (Responses in nA) Oocyte 8 (AaegOR8) [nA] | response of OR15 to unitary compounds (AaegOR15; [2]) | further results |
| --- | --- | --- | --- | --- | --- | --- | --- | --- | --- | --- | --- |
| CCCCCC=O [hexanal] | 0.0 nA (2×) and 10.0 nA and 80.0 nA and 85.0 nA and 110.0 nA (2×) and 160.0 nA and 115.0 nA and 40.0 nA |  |  |  |  |  |  |  |  |  |  |
| COc1ccccc1 [anisole] | 10.0 nA and 20.0 nA (2×) and 220.0 nA and 280.0 nA and 290.0 nA and 310.0 nA and 170.0 nA and 260.0 nA and 100.0 nA | 0.0 | 0.0 | 0.0 | 0.0 | 0.0 | 10.0 | 5.0 | 0.0 |  |  |
| CCCCCCO [1-hexanol] | 50.0 nA and 90.0 nA and 725.0 nA and 780.0 nA and 70.0 nA and 670.0 nA and 1070.0 nA and 580.0 nA and 740.0 nA and 275.0 nA | 10.0 | 10.0 | 40.0 | 15.0 | 30.0 | 170.0 | 120.0 | 10.0 |  | Raw Data, concentration-response (AaegOR15; 1e-7 M, individual oocytes 1-10): 60.0 (2×) and 50.0 (2×) and 70.0 and 55.0 and 40.0 and 75.0 and 15.0 and 35.0; Raw Data, concentration-response (AaegOR15; 5e-7 M, individual oocytes 1-10): 160.0 (2×) and 155.0 and 230.0 and 165.0 and 140.0 and 60.0; Raw Data, concentration-response (AaegOR15; 1e-6 M, individual oocytes 1-10): 180.0 and 350.0 and 220.0 (2×) and 365.0 and 90.0 and 160.0; Raw Data, concentration-response (AaegOR15; 5e-6 M, individual oocytes 1-10): 360.0 and 450.0 and 465.0 and 645.0 and 445.0 and 395.0 and 590.0 and 415.0 and 190.0 and 310.0; Raw Data, concentration-response (AaegOR15; 1e-5 M, individual oocytes 1-10): 410.0 and 480.0 and 510.0 and 730.0 and 495.0 and 435.0 and 655.0 and 450.0 and 360.0; Raw Data, concentration-response (AaegOR15; 5e-5 M, individual oocytes 1-10): 440.0 and 510.0 and 525.0 and 770.0 and 515.0 and 455.0 and 665.0 and 475.0 and 370.0; Raw Data, concentration-response (AaegOR15; 0.0001 M, individual oocytes 1-10): 330.0 and 470.0 and 400.0 and 665.0 and 440.0 and 350.0 and 460.0 and 370.0 and 200.0 and 280.0; EC50 (AaegOR15; AaegOR15/Orco expressing oocytes, TEVC, concentration-response of normalized current): ~1070 nM and 1070 nM; Raw data (Responses in nA), phenethyl propionate versus 1-hexanol (AaegOR15): 30.0 nA and 100.0 nA and 180.0 nA and 120.0 nA and 110.0 nA and 90.0 nA and 95.0 nA |
| CCC/C=C/C=O [trans-2-hexenal] | 0.0 nA and 15.0 nA and 30.0 nA (2×) and 10.0 nA and 40.0 nA (2×) and 50.0 nA (2×) and 60.0 nA | 0.0 | 0.0 | 0.0 | 0.0 | 0.0 | 0.0 | 0.0 | 0.0 |  |  |
| CCC/C=C/CO [trans-2-hexen-1-ol] | 30.0 nA (2×) and 40.0 nA and 310.0 nA and 480.0 nA (2×) and 375.0 nA and 270.0 nA and 440.0 nA and 135.0 nA | 0.0 | 0.0 | 0.0 | 0.0 | 0.0 | 0.0 | 0.0 | 0.0 | additional responses |  |
| CC/C=C\CCO [cis-3-hexen-1-ol] | 20.0 nA and 25.0 nA (2×) and 360.0 nA and 370.0 nA and 350.0 nA and 580.0 nA and 250.0 nA and 520.0 nA and 140.0 nA | 0.0 | 0.0 | 0.0 | 0.0 | 5.0 | 0.0 | 10.0 | 0.0 | additional responses |  |
| C=CC(C)(O)CCC=C(C)C (racemic) [(+/-)-linalool] | 0.0 nA (2×) and 5.0 nA and 10.0 nA (4×) and 20.0 nA and 40.0 nA and 15.0 nA |  |  |  |  |  |  |  |  |  | Normalized response, compounds of blend Alcohols 2, Average (AaegOR15; unitary compounds of Alcohols 2, average of 10 oocytes, 1-hexanol = 100): 2.4; Normalized response, compounds of blend Alcohols 2 (AaegOR15; unitary compounds of Alcohols 2, individual oocytes 1-10, normalized to the largest response of each oocyte (1-hexanol = 100)): 0.0 (2×) and 1.4 and 1.3 and 1.5 and 1.9 and 1.7 and 5.4 and 5.5 and 5.6 |
| C[C@@H]1CC[C@H]2C(C)(C)[C@H]3C[C@@]12CC[C@@]3(C)O [Cedrol] | 0.0 nA (3×) and 5.0 nA (2×) and 10.0 nA (3×) and 25.0 nA and 20.0 nA | 0.0 | 0.0 | 0.0 | 0.0 | 0.0 | 0.0 | 0.0 | 0.0 |  |  |
| C=CC(O)CCCCC (centres unmarked) [1-octen-3-ol] | 10.0 nA and 20.0 nA (2×) and 200.0 nA and 230.0 nA and 210.0 nA and 370.0 nA and 110.0 nA and 240.0 nA and 80.0 nA | 190.0 | 160.0 | 280.0 | 780.0 | 980.0 | 2200.0 | 2720.0 | 240.0 |  | EC50 (AaegOR8; AaegOR8/Orco expressing oocytes, TEVC, concentration-response of normalized current): 2140 nM |
| CCC(=O)OCCc1ccccc1 [phenethyl propionate] |  |  |  |  |  |  |  |  |  | additional responses | Secondary Ligand (AaegOR15; AaegOR15, secondary ligand identified during the functional characterizations): phenethyl propionate; Normalized response, phenethyl propionate, Average (AaegOR15; average of 7 oocytes, relative to 1-hexanol): 56.0; Raw data (Responses in nA), phenethyl propionate versus 1-hexanol (AaegOR15): 10.0 nA and 100.0 nA and 90.0 nA and 70.0 nA (2×) and 40.0 nA (2×) |

Reference: article PMC11073699, “Odorant receptors for floral- and plant-derived volatiles in the yellow fever mosquito, Aedes aegypti (Diptera: Culicidae)” (PLOS ONE, 2024)
